This note sets out measurements from patent publication US10828372B2, “Compositions and methods for the inhibition of fibrosis” (WISCONSIN ALUMNI RESEARCH FOUNDATION, priority 2017, dated 2020).

“And” between values parts separate entries of the source, which are not always exact repeats. Equal values may be shown once. Where no end group is shown, it is not given here.

The subject of assay [1] is Alexa 488-labeled human plasma FN. In words: Matrix Assembly in vitro Assay (MAA), A488-FN deposition by AH1F fibroblasts. The format is cell-based. Particulars: 24 hours, viability-normalized fluorescence, n=4, FUD run alongside each conjugate. On the procedure:
Matrix Assembly Assay: The matrix assembly assay was conducted in the 96-well plate format as described in the art. AH1F human skin fibroblast cells resuspended in 2% fetal bovine serum were added to each well for a density of 60,000 cells per well. A 1 hr incubation period at 37° C. followed to allow cell adhesion and spreading. FUD, PEG-FUD, or PEG-mFUD were added to each well following incubation. Immediately, Alexa Fluor® 488 fluorescence labeled human plasma fibronectin (A488-FN) was then added to each well for a final FN concentration of 11 μg/mL. The cells were then incubated for 24 hours at 37° C. Non-assembled FN was removed from each well by washing with Hank's Balanced Salt Solution (HBSS) containing Ca^2+ and Mg^2+. The well volume was restored to 60 μL with HBSS and a fluorescence reading from the bottom of each well was taken using a Synergy™ H1 (Biotek) plate reader (excitation: 485 nm, Emission: 538 nm). Cell viability was quantified using CellTiter-Glo® cell viability assay using the manufacturer's protocol. A 30 μL aliquot of HBSS was removed from each well and was replaced with 30 μL of the luminescence reagent prepared shortly beforehand. Luminescence was quantified using the same plate reader. The average of fluorescence values of a no A488FN or inhibitor control group were routinely subtracted from the readings of each well and were normalized using each well's corresponding luminescence value. Lastly, the cell viability normalized fluorescence values were expressed as a percentage of the 0 nM drug control group. The final results were processed using Graphpad Prism 7.0 software. IC50 values were extracted using a four-parameter dose-response curve function. Student's t test was used to determine significance of differences among peptides at a given drug concentration.
The PEG-FUD FN fibrillogenesis inhibitory performance was evaluated in vitro using the matrix assembly assay (MAA). The methodology of this assay is depicted in FIG. 8. The MAA quantifies ECM deposition of exogenous AlexaFluor® 488-labeled FN (A488FN) by a confluent monolayer of fibroblasts after an incubation period by measuring fluorescence of deposited FN. In this study, the performance of PEG-FUD peptides was compared to that of FUD and the PEG-mFUD control peptide using the AH1F human foreskin fibroblast cell line.

The test system of assay [2] is bleomycin-induced pulmonary fibrosis. Put plainly: Bleomycin-induced pulmonary fibrosis model: hydroxyproline and survival. In kind it is in vivo, mouse. On the procedure: All efforts were made to minimize suffering. The Bleomycin model is a rodent model representing a human equivalent of pulmonary fibrosis with the fibrotic response peaking between 14 and 21 days post-bleomycin installation. To initiate bleomycin injury, mice were anesthetized with ketamine (100 mg/kg) and xylazine (15 mg/kg) prior to delivering a single intratracheal dose of bleomycin (1 U/kg, Teva Pharmaceutical Industries, Ltd) reconstituted in 0.9% Normal Saline (NS) or NS alone as control.
End-points for analysis: On day 14, mice were euthanized and lungs homogenized for hydroxyproline and western blot. Additionally, mouse survival by day 14 was compared between bleomycin PEG-FUD- and bleomycin PEG-mFUD-treated groups using Log-Rank test.
Hydroxyproline assay: Hydroxyproline assay was performed by Dounce homogenizing right lungs in deionized water, hydrolyzing in 6 N HCl for three hours at 120° C., drying for 45 min at 65° C., incubating in citrate-acetate buffer and chloramine-T for 20 min at room temperature, followed by Ehrlich's reagent for 15 min at 65° C. Subsequently, the samples were cooled to room temperature and the absorbance measured at 550 nm. […] Hydroxyproline results were analyzed using Students t-test with Bonferroni post-hoc test, comparing bleomycin- and PEG-FUD-treated mice to those treated with bleomycin and PEG-mFUD.

Alexa 488-labeled human plasma FN, sequence (P02751 32-608 limits assumed): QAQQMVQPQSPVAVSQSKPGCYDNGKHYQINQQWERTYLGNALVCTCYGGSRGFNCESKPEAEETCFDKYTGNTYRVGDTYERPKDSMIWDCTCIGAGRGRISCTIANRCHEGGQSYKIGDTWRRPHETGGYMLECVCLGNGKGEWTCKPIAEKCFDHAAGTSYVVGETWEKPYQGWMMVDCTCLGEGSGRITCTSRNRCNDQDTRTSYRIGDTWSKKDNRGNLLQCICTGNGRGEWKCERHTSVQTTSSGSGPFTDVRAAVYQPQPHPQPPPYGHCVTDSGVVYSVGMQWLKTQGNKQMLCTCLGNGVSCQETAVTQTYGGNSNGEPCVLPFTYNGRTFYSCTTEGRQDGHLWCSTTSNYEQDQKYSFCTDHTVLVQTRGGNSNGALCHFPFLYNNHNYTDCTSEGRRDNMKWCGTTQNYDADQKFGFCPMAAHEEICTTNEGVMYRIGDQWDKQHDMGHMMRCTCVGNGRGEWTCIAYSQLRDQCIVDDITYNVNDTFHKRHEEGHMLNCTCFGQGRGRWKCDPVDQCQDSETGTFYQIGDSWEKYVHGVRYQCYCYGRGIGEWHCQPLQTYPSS

For the substance “FUD: 49 amino acid FUD peptide, SEQ ID NO: 1, recombinantly expressed, His-tag removed; inhibitor of fibronectin fibrillogenesis (KDQSPLAGESGETEYITEVYGNQQNPVDIDKKLPNETGFSGNMVETEDT; human) [reference compound]”, the half-maximal inhibitory concentration (IC50) in assay [1] was 0.013 µM and 0.026 µM and 0.019 µM.
For “PEG-FUD: PEGylated FUD prepared as in Example 1, PEG size not stated; approximately 27 kDa by mass spectrometry, likely the 20 kDa conjugate (KDQSPLAGESGETEYITEVYGNQQNPVDIDKKLPNETGFSGNMVETEDT; not fully specified (N-terminus); also: PEG size not given here)”, in assay [2] (bleomycin-treated mice, s.c. 12.5 mg/kg/day day 3-13), the “survival to the end of the 14-day trial” value worked out at 100%. Besides, the “collagen accumulation (hydroxyproline assay, right lung)” value in assay [2] (day 14 post-bleomycin, s.c. 12.5 mg/kg/day day 3-13, vs PEG-mFUD) is “significant reduction of collagen accumulation”.

For orientation: IC50 means the concentration that gives 50% inhibition.
